The experiment has as its target T1, dihydrofolate reductase (DHFR) (Homo sapiens, UniProt P00374).
T1 sequence (P00374 1-187): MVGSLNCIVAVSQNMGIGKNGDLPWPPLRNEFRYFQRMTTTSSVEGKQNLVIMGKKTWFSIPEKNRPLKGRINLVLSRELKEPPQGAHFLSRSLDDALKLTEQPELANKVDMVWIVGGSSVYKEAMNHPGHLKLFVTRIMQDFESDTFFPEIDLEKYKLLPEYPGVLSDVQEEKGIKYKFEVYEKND
The experiment can be described thus: spectrophotometric DHFR activity assay. Format: biochemical.

`C#CCC(Cc1cnc2nc(N)nc(N)c2n1)c1ccc(C(=O)NC(CCC(=O)O)C(=O)O)cc1` (racemic) [pralatrexate]: the Ki (as a rule, the dissociation constant of the complex between target and ligand, obtained from inhibition or displacement) worked out at 45 nM.
